Assays:
Settings in all cases: 72 h
SHI-1 [1] = system: SHI-1
Method in brief: (§1)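 The IC50 was read from log-logistic dose–response fits. Fifteen myeloid leukaemia lines were exposed for 72 h at 37 °C with 5% CO2 to five tenfold doses from 1 to 10,000 nM in duplicate. ATP luminescence, normalised to vehicle and to a 10 µM positive control, was fitted with four parameters.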

LAMA-84 [2] = system: LAMA-84
Method in brief: as §1

BV-173 [3] = system: BV-173
Method in brief: as §1

HEL [4] = system: HEL
Method in brief: as §1

MV4-11 [5] = system: MV4-11
Method in brief: as §1

THP-1 = system: THP-1
Method in brief: as §1

HL-60 [6] = system: HL-60
Method in brief: as §1

NOMO-1 = system: NOMO-1
Method in brief: as §1

KU-812 = system: KU-812
Method in brief: as §1

KG-1 [7] = system: KG-1
Method in brief: as §1

ML-2 [8] = system: ML-2
Method in brief: as §1

MOLM-13 [9] = system: MOLM-13
Method in brief: as §1

K-562 [10] = system: K-562
Method in brief: as §1

Mono-Mac-6 = system: Mono-Mac-6
Method in brief: as §1

KCL-22 [11] = system: KCL-22
Method in brief: as §1

HL-60 [12] = assay: cell viability (% survival relative to DMSO control); higher = less cytotoxic
Method in brief: (§2)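 In 384-well plates, the full library was rescreened in duplicate on HL-60 cells in RPMI 1640 with 10% FBS, at 1–10,000 nM in five tenfold concentrations, for 72 h at 37 °C, 5% CO2. Each run also held DMSO or 100 nM of one of three metabolic inhibitors. Viability was measured by CellTiter-Glo and normalised to DMSO wells and to wells with proteasome inhibitor, present at 10 μM. Any area under the curve comes from four-parameter log-logistic fitting with drc and PharmacoGx.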

SHI-1 [13] = assay: cell viability (% survival relative to DMSO control, bortezomib = 0%); higher = less cytotoxic
Method in brief: (§3)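 In 384-well plates pre-printed with compounds at 1, 10, 100, 1000 or 10000 nM, duplicate wells received cells from 10 AML and 5 CML lines at densities within the linear growth range. The plates stayed at 37 °C with 5% CO2 for 72 h before CellTiter-Glo luminescence was recorded. Each entry is averaged percent survival. Scaling placed vehicle at 100% and a 10 µM positive control at 0%.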

LAMA-84 [14] = assay: as above
Method in brief: as §3

BV-173 [15] = assay: as above
Method in brief: as §3

HEL [16] = assay: as above
Method in brief: as §3

MV4-11 [17] = assay: as above
Method in brief: as §3

HL-60 [18] = assay: as above
Method in brief: as §3

KG-1 [19] = assay: as above
Method in brief: as §3

ML-2 [20] = assay: as above
Method in brief: as §3

MOLM-13 [21] = assay: as above
Method in brief: as §3

K-562 [22] = assay: as above
Method in brief: as §3

KCL-22 [23] = assay: as above
Method in brief: as §3

HL-60 [24] = assay: area under dose-response curve (viability, 1 nM-10 uM) (fraction (0-1)); higher = more sensitive
Method in brief: as §2

CC(=O)N1CCN(c2ccc(OC[C@@H]3CO[C@@](Cn4ccnc4)(c4ccc(Cl)cc4Cl)O3)cc2)CC1 (racemic) [Ketoconazole]
Settings	IC50 (cell viability) [µM]
BV-173 [3]	> 10
HEL [4]	> 10
HL-60 [6]	> 10
K-562 [10]	> 10
KCL-22 [11]	8.91
KG-1 [7]	8.35
KU-812	> 10
LAMA-84 [2]	> 10
ML-2 [8]	> 10
MOLM-13 [9]	> 10
MV4-11 [5]	> 10
Mono-Mac-6	> 10
NOMO-1	> 10
SHI-1 [1]	> 10
THP-1	> 10

cell viability [%], HL-60 [12]
Settings	0.001 µM	0.01 µM	0.1 µM	1 µM	10 µM
co-treatment: AZD3965 100 nM	98.3	95.6	105	109	96.1
co-treatment: DMSO vehicle	99.7	96.9	104	104	102.6
co-treatment: GSK2194069 100 nM	100	78.8	109	110	95.6
co-treatment: pictilisib 100 nM	88.8	95.03	106	111	102

Settings	area under dose-response curve, co-treatment: AZD3965 100 nM	area under dose-response curve, co-treatment: DMSO vehicle	area under dose-response curve, co-treatment: GSK2194069 100 nM	area under dose-response curve, co-treatment: pictilisib 100 nM	cell viability, 1 nM [%]	cell viability, 10 nM [%]	cell viability, 100 nM [%]	cell viability, 1000 nM [%]	cell viability, 10000 nM [%]
BV-173 [15]	–	–	–	–	90.8	78.3	100	92.6	78.8
HEL [16]	–	–	–	–	104	105	94.1	112	67.2
HL-60 [18]	–	–	–	–	104	109	97.8	112	75.5
HL-60 [24]	< 0.0301	< 0.0301	< 0.0301	< 0.0301	–	–	–	–	–
K-562 [22]	–	–	–	–	98.6	95.2	97.3	91.8	95.8
KCL-22 [23]	–	–	–	–	98.4	117	101	103	44.1
KG-1 [19]	–	–	–	–	97.5	105	90.9	93.7	42.9
LAMA-84 [14]	–	–	–	–	104	97.9	96.3	96.7	82.6
ML-2 [20]	–	–	–	–	97.8	113	90.8	101	69.9
MOLM-13 [21]	–	–	–	–	92.5	110	100	104	88.1
MV4-11 [17]	–	–	–	–	92.5	94.3	102	98.2	54.7
SHI-1 [13]	–	–	–	–	104	113	96.3	114	97.5

CCC(CC#N)OC(=O)N[C@@H](C)c1cccc(NC(=O)Nc2ccc(-c3cnco3)c(OC)c2)c1 (stereo in doubt) [AVN-944]
Settings	IC50 (cell viability) [µM]
BV-173 [3]	0.118
HEL [4]	0.151
HL-60 [6]	0.182
K-562 [10]	0.0558
KCL-22 [11]	0.0628
KG-1 [7]	0.173
KU-812	0.0949
LAMA-84 [2]	0.0736
ML-2 [8]	0.0668
MOLM-13 [9]	0.0449
MV4-11 [5]	0.0781
Mono-Mac-6	0.151
NOMO-1	0.451
SHI-1 [1]	0.137
THP-1	1.9

cell viability [%], HL-60 [12]
Settings	0.001 µM	0.01 µM	0.1 µM	1 µM	10 µM
co-treatment: AZD3965 100 nM	96.6	102	102	35.4	8.09
co-treatment: DMSO vehicle	99.36	97.01	103	50	12.9
co-treatment: GSK2194069 100 nM	99.2	105	100	53	12.3
co-treatment: pictilisib 100 nM	102.95	98.5	93.8	48.9	9.49

Settings	area under dose-response curve, co-treatment: AZD3965 100 nM	area under dose-response curve, co-treatment: DMSO vehicle	area under dose-response curve, co-treatment: GSK2194069 100 nM	area under dose-response curve, co-treatment: pictilisib 100 nM	cell viability, 1 nM [%]	cell viability, 10 nM [%]	cell viability, 100 nM [%]	cell viability, 1000 nM [%]	cell viability, 10000 nM [%]
BV-173 [15]	–	–	–	–	93.8	80.7	50.8	-0.621	-0.6
HEL [16]	–	–	–	–	101	119	70	4.65	2.7
HL-60 [18]	–	–	–	–	94.9	85.7	61.6	12.6	1.98
HL-60 [24]	0.273	0.233	0.227	0.255	–	–	–	–	–
K-562 [22]	–	–	–	–	103	96.9	30.3	10.1	5.46
KCL-22 [23]	–	–	–	–	94.6	114	32.7	11.6	7.56
KG-1 [19]	–	–	–	–	108	99.4	74.1	27	20.2
LAMA-84 [14]	–	–	–	–	92.5	102	43.9	19	12.5
ML-2 [20]	–	–	–	–	99.6	111	29.5	1.17	-0.0869
MOLM-13 [21]	–	–	–	–	130	121	8.35	1.17	0.252
MV4-11 [17]	–	–	–	–	92.1	96.4	35.8	-0.602	-0.425
SHI-1 [13]	–	–	–	–	104	107	68.2	12.4	8.7

From the supplement of paper PMC8671470
